The text below walks through data of publication PMC12067350, “Discovery of Thieno[3,2‑b]pyridine-5-carboxamide and 2,3-Difluorobenzamide Negative Allosteric Modulators of Metabotropic Glutamate Receptor Subtype 5” (ACS Medicinal Chemistry Letters, 2025).

Broadly, the CLint scaled is a measure of how fast metabolising enzymes remove a compound, apart from limits set by blood flow. A higher CLint scaled goes with faster metabolism. What is called IC50 is the midpoint of a concentration-inhibition curve.

Format in all cases: in vitro ADME
A short description of data set [1]: Intrinsic clearance in human liver microsomes. To be noted: for CLint scaled at 0.75 h, 1 µM: pH 7.4, human liver microsomes; for CLhep, human: predicted hepatic clearance from human microsomes.
A short description of data set [2]: Binding in plasma from rat (equilibrium dialysis). Conditions: fraction unbound. As to the method:
(§1) Binding in plasma from rat and human.
Determination of compounds’ fraction unbound (f u) in plasma from rat and human was conducted in vitro via equilibrium dialysis using HTDialysis membrane plates. Dialysis membranes (four paired strips per HTD assay) were hydrated as described by the manufacturer and inserted into the HTD plate, which was assembled and prepared for sample addition by the dispensing of blank buffer (DPBS, 100 µL/well) into the ‘top half’ of each membrane-split well. Each compound was diluted into plasma from each species (5 µM final concentration), which was aliquoted in triplicate to the ‘bottom half’ of the prepared HTD plate wells. The HTD plate was sealed and incubated for 6 hours at 37 °C. […] Supernatant (60 µL) from each well of the daughter plates was then transferred to the corresponding wells of new daughter plates (96-shallow-well, V bottom) containing water (Milli-Q, 60 µL/well), and the plates were sealed in preparation for LC-MS/MS analysis (see below). fu was calculated as (analyte to IS MS peak area ratio from Trans-buffer side) / (analyte to IS MS peak area ratio from Cis-plasma side). Mean values for each species were calculated from 3 replicates. […]
(§2) Mean values for each species were calculated from 3 replicates.
A general note: In equilibrium dialysis only unbound substance equilibrates across the membrane.

The nature of data set [3]: Binding in plasma from human (equilibrium dialysis). Conditions: fraction unbound. The protocol: as §1
Determination of compounds’ fraction unbound (f u) in plasma from rat and human was conducted in vitro via equilibrium dialysis using HTDialysis membrane plates. Dialysis membranes (four paired strips per HTD assay) were hydrated as described by the manufacturer and inserted into the HTD plate, which was assembled and prepared for sample addition by the dispensing of blank buffer (DPBS, 100 µL/well) into the ‘top half’ of each membrane-split well. Each compound was diluted into plasma from each species (5 µM final concentration), which was aliquoted in triplicate to the ‘bottom half’ of the prepared HTD plate wells. The HTD plate was sealed and incubated for 6 hours at 37 °C. Following incubation, each well (both top and bottom halves) were transferred (20 µL) to the corresponding wells of a 96-shallow-well (V-bottom) plate. The daughter plates were then matrix-matched (buffer side wells received equal volume of plasma, and plasma side wells received equal volume of buffer), and extraction solution (120 µL; acetonitrile containing 50 nM carbamazepine as IS) was added to all wells of both daughter plates to precipitate protein and extract test article. The plates were then sealed and centrifuged (3500 rcf) for 10 minutes at ambient temperature. Supernatant (60 µL) from each well of the daughter plates was then transferred to the corresponding wells of new daughter plates (96-shallow-well, V bottom) containing water (Milli-Q, 60 µL/well), and the plates were sealed in preparation for LC-MS/MS analysis (see below). fu was calculated as (analyte to IS MS peak area ratio from Trans-buffer side) / (analyte to IS MS peak area ratio from Cis-plasma side). Mean values for each species were calculated from 3 replicates. […]
as §2

The target of the next data set is T1, CYP2C9 (Homo sapiens, UniProt P11712).
T1 construct: from tissue; host or cells: human liver microsomes
T1 sequence (P11712 whole entry): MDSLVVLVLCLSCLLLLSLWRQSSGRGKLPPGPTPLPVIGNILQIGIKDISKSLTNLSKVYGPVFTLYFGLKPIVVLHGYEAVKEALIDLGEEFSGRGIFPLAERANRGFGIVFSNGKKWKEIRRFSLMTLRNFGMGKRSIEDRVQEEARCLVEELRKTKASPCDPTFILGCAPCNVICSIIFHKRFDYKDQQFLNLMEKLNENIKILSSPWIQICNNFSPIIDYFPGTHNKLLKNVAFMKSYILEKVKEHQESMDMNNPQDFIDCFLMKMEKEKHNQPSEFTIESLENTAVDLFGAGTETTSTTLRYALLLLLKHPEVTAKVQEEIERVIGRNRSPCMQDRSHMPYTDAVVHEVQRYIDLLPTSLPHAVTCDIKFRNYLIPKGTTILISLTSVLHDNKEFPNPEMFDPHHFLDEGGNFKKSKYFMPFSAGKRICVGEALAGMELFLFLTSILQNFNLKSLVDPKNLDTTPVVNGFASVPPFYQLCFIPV
In words: Cytochrome P450 inhibition using human liver microsomes, CYP2C9. To be noted: read-out: CYP 450 IC50, 2C9.

The next data set addresses T2, CYP3A4 (Homo sapiens, UniProt P08684).
T2 construct: from tissue; host or cells: human liver microsomes
In words: Cytochrome P450 inhibition using human liver microsomes, CYP3A4. To be noted: read-out: CYP 450 IC50, 3A4. As to the method:
Cytochrome P450 inhibition using Liver Microsomes.
The ability of compounds to inhibit cytochrome P450s (CYPs) was tested using human liver microsomes and a cocktail of substrates specific for CYP1A2, 2C9, 2D6 and 3A4. Compounds were incubated at 37C in presence of human liver microsomes (0.1 mg/ml) at 30, 10, 3, 1, 0.3 and 0.1 µM. A cocktail of substrate was also added for each CYP tested: phenacetin (10 µM, CYP1A2), diclofenac (5 µM, CYP2C9), dextromethorphan (5 µM, CYP2D6) and midazolam (2 µM, CYP3A4). HLM were also incubated with the control inhibitor miconazole at 3, 1, 0.3, 0.1, 0.03 and 0.01 µM. […]
The concentrations of CYP-specific metabolites generated at the end of the reaction were quantified by mass spectrometry using standard curves for each metabolite: acetaminophen (CYP1A2), 4-hydroxydiclofenac (CYP2C9), dextrophan (CYP2D6) and 1-hydroxymidazolam (CYP3A4). A concentration response curve for each metabolite was generated and IC50s were calculated using Prism. The LC-MS/MS transitions for metabolite quantifications are as follows. […]
Prepared samples were injected (10 µL each) onto an AB Sciex Triple Quad 4500 mass spectrometer system with an Agilent 1260 Infinity II pump and autosampler. […] Quantitation of compounds was performed via AB Sciex Multiquant software using the raw analyte:IS peak area ratios. […]
In general terms: Liver microsomes are a subcellular fraction often used to study metabolism.

T2 sequence (P08684 whole entry): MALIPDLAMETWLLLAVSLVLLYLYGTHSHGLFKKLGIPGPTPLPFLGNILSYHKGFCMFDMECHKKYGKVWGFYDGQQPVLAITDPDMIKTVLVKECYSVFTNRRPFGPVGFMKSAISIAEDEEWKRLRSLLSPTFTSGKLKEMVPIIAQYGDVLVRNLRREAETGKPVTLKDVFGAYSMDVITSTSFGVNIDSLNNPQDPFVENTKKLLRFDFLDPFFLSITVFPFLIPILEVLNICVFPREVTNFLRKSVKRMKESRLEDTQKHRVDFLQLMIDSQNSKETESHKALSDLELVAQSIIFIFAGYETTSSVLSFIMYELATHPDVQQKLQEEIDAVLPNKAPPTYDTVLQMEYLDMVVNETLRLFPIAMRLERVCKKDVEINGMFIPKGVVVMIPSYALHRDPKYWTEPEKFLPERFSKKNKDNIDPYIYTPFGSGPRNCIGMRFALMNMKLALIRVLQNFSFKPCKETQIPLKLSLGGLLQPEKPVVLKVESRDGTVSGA

Consider `Cc1csc(NC(=O)c2cc(O[C@@H]3CCOC3)c3sccc3n2)n1` [19aA], for which, in data set [1], the CLint scaled at 0.75 h, 1 µM is 140 mL/min/kg and the “CLhep, human” value is listed as 18.3 mL/min/kg. Moreover, the “rat f u,plasma” value in data set [2] is listed as 0.027. Further, the “human f u,plasma” value in data set [3] amounted to 0.020. For the same compound, the IC50 at CYP2C9 is > 30 µM. Besides, the IC50 at CYP3A4 was > 30 µM.
As for `Cc1csc(NC(=O)c2cc(O[C@@H]3CCOC3)cc(F)c2F)n1` [27cA], in data set [1], the CLint scaled at 0.75 h, 1 µM turned out to be 241 mL/min/kg and the “CLhep, human” value is 19.3 mL/min/kg. The “rat f u,plasma” value in data set [2] was 0.040. Besides, the “human f u,plasma” value in data set [3] is reported as 0.069. In addition, the IC50 at CYP2C9 is > 30 µM. At CYP3A4, the IC50 is > 30 µM.
